Test results taken from article PMC5654082 (Malaria Journal, 2017).
Where a name gives a salt, the structure may show the parent alone. Read-outs that look alike come from different tables or passages of the source. Marks after values point to notes of the source that are not given here.

Key:
human OCT1 [1] = target: T1, human OCT1 (Homo sapiens, UniProt O15245); test: Inhibition of OCT1-mediated ASP uptake in transduced HEK293 cells; type: cell-based; settings: 50 µM anti-malarial, 10 µM ASP, 10 min, 37 °C; relative to solvent control fixed at 100%
T1 construct: host or cells: HEK293, baculovirus transduction (CMV promoter), transient
T1 sequence (O15245 1-554): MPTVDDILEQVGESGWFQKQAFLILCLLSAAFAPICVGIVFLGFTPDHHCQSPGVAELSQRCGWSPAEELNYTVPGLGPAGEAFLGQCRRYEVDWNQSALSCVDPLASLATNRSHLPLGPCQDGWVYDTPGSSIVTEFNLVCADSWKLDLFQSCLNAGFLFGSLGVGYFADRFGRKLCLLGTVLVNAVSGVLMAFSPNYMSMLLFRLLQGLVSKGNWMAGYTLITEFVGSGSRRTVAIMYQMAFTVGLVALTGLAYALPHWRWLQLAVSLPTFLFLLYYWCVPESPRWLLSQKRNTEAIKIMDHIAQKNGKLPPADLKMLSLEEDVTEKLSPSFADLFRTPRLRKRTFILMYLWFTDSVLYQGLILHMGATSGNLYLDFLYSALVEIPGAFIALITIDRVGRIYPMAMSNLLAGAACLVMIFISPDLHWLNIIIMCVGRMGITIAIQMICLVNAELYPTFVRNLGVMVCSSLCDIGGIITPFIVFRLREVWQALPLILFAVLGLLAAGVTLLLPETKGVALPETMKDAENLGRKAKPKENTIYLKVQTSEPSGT
Protocol: (§1) HEK293 cells were modified to transiently express (a combination of) human OCT1, OCT2, MATE1, MATE2-K, or eYFP. Briefly, cDNA of the respective genes was cloned downstream of a CMV promoter into a baculovirus, of which passage three was used to transduce HEK293 cells. These cells were seeded in poly-D-lysine coated 24- or 96-wells plates and grown in a 37 °C incubator at 5% CO2. Growth was initiated at ~ 25% confluency using 375 or 125 μL cell and complete medium (DMEM + GlutaMAX™-I supplemented with 10% fetal bovine serum) suspension per well, respectively. After 24 h, cells were transduced with 30 µL virus (10 µL virus + 20 µL complete medium in case of 96-wells plates) or 2 × 15 µL virus for cells that required simultaneous expression of two transporters. Finally, 195 µL sodium butyrate (45 µL for 96-wells plates) was added to a final concentration of 2 mM to enhance protein expression.
AMO (10 mM), ASP (1 mM), CQ (10 mM), PQ (10 mM) and PG (10 mM) were dissolved in MilliQ water. ART (10 mM), ATO (10 mM), DHA (10 mM), LUM (10 mM), MQ (10 mM), NMQ (20 mM), PYR (10 mM), QN (10 mM) were dissolved in DMSO. All compound stocks were stored at − 20 °C. Inhibition of OCT1- or OCT2-mediated ASP uptake by anti-malarials was performed in poly-D-lysine coated 96-wells plates 2 or 3 days following HEK293 cell transduction. In short, cells were washed with 125 µL 37 °C HBSS containing 10 mM HEPES, pH 7.4. Then, a 50 µL mixture of ASP (10 µM) and anti-malarial compound (25, 50 or 100 µM) in HBSS buffer (pH 7.4) was added to each well and incubated for 10 min at 37 °C. ASP transport was stopped by washing with 125 µL ice-cold HBSS-HEPES buffer supplemented with 0.5% BSA. Following a second wash with 125 µL ice-cold HBSS-HEPES buffer, cells were lysed with 125 µL 1 M NaOH and ASP was excited at a wavelength of 485 nm and fluorescence was detected at an emission wavelength of 535 nm using the Victor X3 multimode plate reader.
(§2) For each compound, a range of seven concentrations was used to determine the concentration at which ASP uptake was inhibited half maximally (IC50). At least three independent experiments (4 for QN) were performed for each drug in triplicate as described above. Inhibition curves were plotted by nonlinear regression analyses of the data using GraphPad Prism version 5.03. […] To generate the final dose–response inhibition curve per anti-malarial, percentage of uptake was averaged for each drug concentration per experiment and the resulting mean ± SEM corresponding to three or four independent experiments were plotted.

human OCT2 [2] = target: T2, human OCT2 (Homo sapiens, UniProt O15244); test: Inhibition of OCT2-mediated ASP uptake in transduced HEK293 cells; type: cell-based
T2 construct: host or cells: HEK293, baculovirus transduction (CMV promoter), transient
T2 sequence (O15244 1-555): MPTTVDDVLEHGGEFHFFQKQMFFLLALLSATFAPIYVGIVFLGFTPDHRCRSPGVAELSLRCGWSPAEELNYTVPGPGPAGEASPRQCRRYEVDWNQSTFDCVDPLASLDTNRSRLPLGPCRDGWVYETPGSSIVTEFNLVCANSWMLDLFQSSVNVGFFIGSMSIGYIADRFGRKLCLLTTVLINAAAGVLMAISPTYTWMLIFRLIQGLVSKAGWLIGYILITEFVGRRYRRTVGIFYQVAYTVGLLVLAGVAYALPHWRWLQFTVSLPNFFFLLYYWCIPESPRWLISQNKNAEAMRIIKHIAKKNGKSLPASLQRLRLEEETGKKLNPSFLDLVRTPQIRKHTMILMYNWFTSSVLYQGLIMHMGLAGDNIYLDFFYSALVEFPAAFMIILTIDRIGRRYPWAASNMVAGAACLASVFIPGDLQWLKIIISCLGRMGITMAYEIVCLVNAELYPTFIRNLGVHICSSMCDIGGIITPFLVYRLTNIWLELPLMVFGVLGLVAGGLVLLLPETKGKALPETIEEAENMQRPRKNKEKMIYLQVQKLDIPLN
Protocol: as §1, with “Growth was initiated at ~ 25% confluency using 375 or 125 μL cell and complete medium (DMEM + GlutaMAX™-I supplemented with 10% fetal bovine serum) suspension per well, respectively.” left out
AMO (10 mM), ASP (1 mM), CQ (10 mM), PQ (10 mM) and PG (10 mM) were dissolved in MilliQ water. ART (10 mM), ATO (10 mM), DHA (10 mM), LUM (10 mM), MQ (10 mM), NMQ (20 mM), PYR (10 mM), QN (10 mM) were dissolved in DMSO. All compound stocks were stored at − 20 °C. Inhibition of OCT1- or OCT2-mediated ASP uptake by anti-malarials was performed in poly-D-lysine coated 96-wells plates 2 or 3 days following HEK293 cell transduction. In short, cells were washed with 125 µL 37 °C HBSS containing 10 mM HEPES, pH 7.4. […] ASP transport was stopped by washing with 125 µL ice-cold HBSS-HEPES buffer supplemented with 0.5% BSA.
as §2, with “above.” for “above. Inhibition curves were plotted by nonlinear regression analyses of the data using GraphPad Prism version 5.03.”

[3] = Maximum plasma concentration from in vivo pharmacokinetic studies after therapeutic dosing; settings: human, the literature Cmax (ng/mL) of Table 2 expressed in µM
Source text: As Cmax the (geometric) mean or median maximum plasma concentrations obtained from previous in vivo pharmacokinetic studies after therapeutic dosing was used.

[4] = Ugandan children aged 5–13 years with uncomplicated malaria; (geometric) mean or median; cited from earlier work
[5] = cited from earlier work
human OCT1 [6] = target: T1, human OCT1; test: OCT1-mediated cellular import in transduced HEK293 cells (LC-MS/MS); type: cell-based; settings: 10 µM, 15 min, 37 °C
Protocol: as §1
HEK293 cells were seeded in 24-wells poly-D-lysine coated plates and transduced the subsequent day with OCT1 or OCT2 as described above. Three days following transduction, OCT1- or OCT2-mediated uptake of ten anti-malarials (AMO, ART, ATO, CQ, DHA, LUM, MQ, PQ, PG, and QN) was performed. NMQ served as a positive substrate for both OCT1 and OCT2 import. In short, cells were washed with 400 µL 37 °C HBSS-HEPES buffer followed by adding 150 µL HBSS buffer with 10 µM anti-malarial or NMQ to each well. After incubation for 15 min at 37 °C, import was stopped by washing with 400 µL ice-cold HBSS-HEPES buffer supplemented with 0.5% BSA. Following a second wash with 400 µL ice-cold HBSS-HEPES buffer, cells were lysed with 200 µL 50% (v/v) MeOH and 0.1% (v/v) formic acid (HCOOH) in water and samples were sent for quantification by mass spectrometry analysis (see “LC–MS/MS quantification of anti-malarials” section). […]
(§3) The affinity (KM) and maximum transport rate (Vmax) for OCT1 and OCT2 of PG were determined by analysing concentration-dependent uptake data from three independent experiments.
(§4) Import and export of PG and cycloguanil (CG) was assessed by single and double transduced HEK293 cells. […] Following the same procedure as for the cellular import assay described above, the import of 100 µM PG and CG was measured after 5 min incubation and data was plotted as mean pmol/mg/min ± SEM. […] Significant reduction in uptake (i.e. export by MATEs) was determined using ln transformation and a one-way repeated measures ANOVA with Dunnet’s post test.
Anti-malarial concentration in the cell lysates was quantified using an LC–MS/MS system consisting of a UPLC, a binary solvent manager, a vacuum degasser and an autosampler, coupled to a Xevo TQ-S micro triple quadrupole mass spectrometer. […]

human OCT2 [7] = target: T2, human OCT2; test: OCT2-mediated cellular import in transduced HEK293 cells (LC-MS/MS); type: cell-based; settings: 10 µM, 15 min, 37 °C
Protocol: as §1
HEK293 cells were seeded in 24-wells poly-D-lysine coated plates and transduced the subsequent day with OCT1 or OCT2 as described above. Three days following transduction, OCT1- or OCT2-mediated uptake of ten anti-malarials (AMO, ART, ATO, CQ, DHA, LUM, MQ, PQ, PG, and QN) was performed. […] Following a second wash with 400 µL ice-cold HBSS-HEPES buffer, cells were lysed with 200 µL 50% (v/v) MeOH and 0.1% (v/v) formic acid (HCOOH) in water and samples were sent for quantification by mass spectrometry analysis (see “LC–MS/MS quantification of anti-malarials” section). […]
as §3
as §4, with “test. […]” for “test.”

[8] = substrate: [H]/N=C(\N/C(=N/[H])Nc1ccc(Cl)cc1)NC(C)C; test: OCT1-mediated cellular import in transduced HEK293 cells (LC-MS/MS); type: cell-based, human; settings: other: 1 min incubation, 37 °C, 2.0–16 µM, pH 7.4
Protocol: HEK293 cells were modified to transiently express (a combination of) human OCT1, OCT2, MATE1, MATE2-K, or eYFP. Briefly, cDNA of the respective genes was cloned downstream of a CMV promoter into a baculovirus, of which passage three was used to transduce HEK293 cells. These cells were seeded in poly-D-lysine coated 24- or 96-wells plates and grown in a 37 °C incubator at 5% CO2. Growth was initiated at ~ 25% confluency using 375 or 125 μL cell and complete medium (DMEM + GlutaMAX™-I supplemented with 10% fetal bovine serum) suspension per well, respectively. […]
HEK293 cells were seeded in 24-wells poly-D-lysine coated plates and transduced the subsequent day with OCT1 or OCT2 as described above. […] Following a second wash with 400 µL ice-cold HBSS-HEPES buffer, cells were lysed with 200 µL 50% (v/v) MeOH and 0.1% (v/v) formic acid (HCOOH) in water and samples were sent for quantification by mass spectrometry analysis (see “LC–MS/MS quantification of anti-malarials” section). […]
as §3
Import and export of PG and cycloguanil (CG) was assessed by single and double transduced HEK293 cells. […]

[9] = 50 µM anti-malarial, 10 µM ASP, 10 min, 37 °C, relative to solvent control fixed at 100%

Molecule: CCN(CC)Cc1cc(Nc2ccnc3cc(Cl)ccc23)ccc1O [Amodiaquine, amodiaquine dihydrochloride dehydrate]
- Relative ASP uptake (OCT1-mediated) (human OCT1 [1]): 67 ± 4%
- IC50 (human OCT2 [2]; 10 µM ASP, 10 min, 37 °C, seven concentrations): 11 µM
- Relative ASP uptake (OCT2-mediated) (human OCT2 [2]; [9]): 12.1 ± 0.6%
- Cmax [3]: 0.015 µM
- Cmax [4]: 5.2^c [45] ng/mL
- Unbound fraction [5]: 0.1 [46]

Molecule: C[C@@H]1CC[C@H]2[C@@H](C)C(=O)O[C@@H]3O[C@@]4(C)CC[C@@H]1[C@]32OO4 [Artemisinin, artemisinin]
- Relative ASP uptake (OCT2-mediated) (human OCT2 [2]; [9]): 61 ± 13%

Molecule: CCN(CC)CCCC(C)Nc1ccnc2cc(Cl)ccc12 (centres unmarked) [Chloroquine, chloroquine diphosphate]
- Relative ASP uptake (OCT2-mediated) (human OCT2 [2]): 48 ± 11%

Molecule: OC(c1cc(C(F)(F)F)nc2c(C(F)(F)F)cccc12)C1CCCCN1 (centres unmarked) [Mefloquine, mefloquine hydrochloride]
- Relative ASP uptake (OCT1-mediated) (human OCT1 [1]): 150 ± 21%

Molecule: C=C[C@H]1C[N+]2(C)CC[C@H]1C[C@@H]2[C@@H](O)c1ccnc2ccc(OC)cc12 [NMQ, N-methyl-quinidine]
- Uptake by OCT1, percentage of mock-transduced control (human OCT1 [6]): taken up
- Uptake by OCT2, percentage of mock-transduced control (human OCT2 [7]): taken up

Molecule: COc1cc(NC(C)CCCN)c2ncccc2c1 (centres unmarked) [Primaquine, primaquine diphosphate]
- Relative ASP uptake (OCT1-mediated) (human OCT1 [1]): 59 ± 3%
- Relative ASP uptake (OCT2-mediated) (human OCT2 [2]; [9]): 60 ± 7%

B1: human OCT1 (Homo sapiens) (protein)
chain: MPTVDDILEQVGESGWFQKQAFLILCLLSAAFAPICVGIVFLGFTPDHHCQSPGVAELSQRCGWSPAEELNYTVPGLGPAGEAFLGQCRRYEVDWNQSALSCVDPLASLATNRSHLPLGPCQDGWVYDTPGSSIVTEFNLVCADSWKLDLFQSCLNAGFLFGSLGVGYFADRFGRKLCLLGTVLVNAVSGVLMAFSPNYMSMLLFRLLQGLVSKGNWMAGYTLITEFVGSGSRRTVAIMYQMAFTVGLVALTGLAYALPHWRWLQLAVSLPTFLFLLYYWCVPESPRWLLSQKRNTEAIKIMDHIAQKNGKLPPADLKMLSLEEDVTEKLSPSFADLFRTPRLRKRTFILMYLWFTDSVLYQGLILHMGATSGNLYLDFLYSALVEIPGAFIALITIDRVGRIYPMAMSNLLAGAACLVMIFISPDLHWLNIIIMCVGRMGITIAIQMICLVNAELYPTFVRNLGVMVCSSLCDIGGIITPFIVFRLREVWQALPLILFAVLGLLAAGVTLLLPETKGVALPETMKDAENLGRKAKPKENTIYLKVQTSEPSGT
notes: host or cells: HEK293, baculovirus transduction (CMV promoter), transient
- Km [8]: 8.1 µM
